Experimental data published in PMC5561493 (Journal of Clinical Pharmacology, 2017).
Where “and” joins values, the source holds several entries; their conditions need not be identical. Equal entries are not always repeated. Where two headings read alike, the source gives them in different places.

Experiments:
[1] = test system: CYP2C19; settings: cited from earlier work
[2] = 1.6 mg/m^2 dose level; cited from earlier work
[3] = test system: efflux pumps; settings: in vitro transport studies; ref Takeda, data on file; cited from earlier work
[4] = test system: blood 20S proteasome activity; settings: 1.2 and 1.6 mg/m^2 IV; cited from earlier work
[5] = test system: CYP3A; settings: coadministration of ketoconazole; cited from earlier work
[6] = in vitro transport studies; ref Takeda, data on file; cited from earlier work
[7] = adult patients, cited from earlier work
[8] = 1.7 mg/m^2 dose level; cited from earlier work
[9] = Population PK analysis of bortezomib in pediatric ALL/AML patients; format: in vivo, human; settings: for half-life: human, plasma, intravenous, 1.3 mg/m^2, half-life, geometric mean (%CV)
[10] = varying grades of renal impairment; cited from earlier work
[11] = test system: cytochrome P450 enzymes; settings: in decreasing order of relative contributions; cited from earlier work
[12] = final population PK model, bootstrap, 1.3 mg/m^2 IV repeat dose

Q: For `CC(C)C[C@H](NC(=O)[C@H](Cc1ccccc1)NC(=O)c1cnccn1)B(O)O` [bortezomib], which “effect of omeprazole coadministration on bortezomib PK” value [1] is on record?
A: did not alter bortezomib PK

Q: What about the dose-limiting toxicities [2] of the same compound?
A: 2 dose‐limiting toxicities of thrombocytopenia

Q: What about the “substrate for efflux pumps” value [3] of the same compound?
A: not a substrate for efflux pumps

Q: What about the “inhibition of blood 20S proteasome activity” value [4] of the same compound?
A: Dose‐dependent inhibition

Q: And the “time of maximal inhibition of blood 20S proteasome activity after dosing” value [4]?
A: ≤ 1 h

Q: And the “increase in bortezomib area under the concentration-time curve” value [5]?
A: 35%

Q: And the apparent permeability [6]?
A: high apparent permeability

Q: What about the “BSA-normalized clearance, mean (%CV)” value ([7]; 1.0 mg/m^2 dose) of the same compound?
A: 12.9 (70%) L/(h·m^2)

Q: And the “BSA-normalized clearance, mean (%CV)” value ([7]; 1.3 mg/m^2 dose)?
A: 14.9 (63%) L/(h·m^2)

Q: What about the dose-limiting toxicities [8] of the same compound?
A: Two dose‐limiting toxicities (grade 3 confusion and grade 4 hypotension with fever)

Q: And the “clearance, geometric mean (%CV)” value ([9]; all patients (N = 104), 2-16 y, individual estimates, 1.3 mg/m^2 IV repeat dose)?
A: 7.79 (25%) L/(h·m^2)

Q: What about the “volume of distribution at steady-state, geometric mean (%CV)” value ([9]; all patients (N = 104), sum of V1, V2, V3) of the same compound?
A: 834 (39%) L/m^2

Q: And the “Interindividual variability (CV) of CL” value ([9]; base model)?
A: 41.2%

Q: What about the “Interindividual variability (CV) of Q3” value ([9]; base model) of the same compound?
A: 38.3%

Q: What about the “Interindividual variability (CV) of V1” value ([9]; base model) of the same compound?
A: 50.7%

Q: What about the “Interindividual variance of CL” value ([9]; final model) of the same compound?
A: 29.7 %CV

Q: And the “Interindividual variance of Q3” value ([9]; final model)?
A: 29.8 %CV

Q: What about the “Interindividual variance of V1” value ([9]; final model) of the same compound?
A: 34.6 %CV

Q: What about the “V1 (central volume), population median” value [9, 12] of the same compound?
A: 10.0 L

Q: And the “V2 (peripheral volume 1), population median” value [9, 12]?
A: 32.5 L

Q: And the “V3 (peripheral volume 2), population median” value [9, 12]?
A: 975 L

Q: What about the “BSA effect on Q3 (exponent)” value ([9]; final population PK model, power model) of the same compound?
A: 0.75

Q: What about the half-life ([9]; α disposition phase, all patients (N = 104)) of the same compound?
A: 6.15 min

Q: What about the half-life ([9]; β disposition phase, all patients (N = 104)) of the same compound?
A: 94.8 min

Q: What about the half-life ([9]; γ (terminal/elimination) disposition phase, all patients (N = 104)) of the same compound?
A: 6000 min

Q: What about the “BSA-normalized clearance, mean (%CV)” value ([9]; patients 2 to 11 years old (N = 62)) of the same compound?
A: 8.11 (25%) L/(h·m^2) and 8.11 L/(h·m^2)

Q: And the “BSA-normalized clearance, mean (%CV)” value ([9]; patients aged 12 to 16 years (N = 42))?
A: 7.94 (25%) L/(h·m^2) and 7.94 L/(h·m^2)

Q: And the “effect of renal impairment on bortezomib clearance” value [10]?
A: did not alter bortezomib clearance

Q: What about the “CYP enzymes mediating hepatic microsomal metabolism” value [11] of the same compound?
A: primary involvement of CYPs 3A4, 2C19, and 1A2
